Source: US20130102631A1, “NOVEL MICROBIOCIDAL DIOXIME ETHER DERIVATIVES” (SYNGENTA CROP PROTECTION LLC, priority 2010, published 2013)

Tests used:
[1] = tested on: Gaeumannomyces graminis; experiment: Gaeumannomyces graminis / liquid culture (take-all of cereals); assay type: cell-based; settings: at ≦200 ppm, liquid culture PDB, inhibition of growth photometrically 4-5 days after application, read-out: control of Gaeumannomyces graminis
In short: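 Mycelial fragments of the fungus in potato dextrose broth were added to wells containing compound in DMSO. Plates were incubated at 24° C, and growth inhibition was read photometrically 4-5 days after application.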

[2] = tested on: Phaeosphaeria nodorum (Septoria nodorum); experiment: Phaeosphaeria nodorum (Septoria nodorum) / wheat / leaf disc preventative (glume blotch); assay type: in vivo; settings: Parastagonospora nodorum, foliar, wheat leaf segments cv Kanzler, inoculated 2 days after application, assessed 5-7 days after application
In short: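 Wheat cv Kanzler leaf segments on agar were sprayed with formulated compound at 200 ppm and inoculated with spores 2 days later. Incubation at 20 °C, 75% RH, 12/12 h light/dark; percent disease control versus untreated scored 5–7 days after application.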

[3] = tested on: Mycosphaerella graminicola (Septoria tritici); experiment: Mycosphaerella graminicola (Septoria tritici) / liquid culture (Septoria blotch); assay type: cell-based; settings: Zymoseptoria tritici; at ≦200 ppm, liquid culture PDB, inhibition of growth photometrically 4-5 days after application; read-out: control of Mycosphaerella graminicola
[4] = tested on: Pyrenophora teres; experiment: Pyrenophora teres / barley / leaf disc preventative (net blotch); assay type: in vivo; settings: foliar, barley leaf segments cv Hasso, inoculated two days after application, assessed 5-7 days after application
Description: Pyrenophora teres/Barley/Leaf Disc Preventative (Net Blotch): Barley leaf segments cv Hasso are placed on agar in a 24-well plate and sprayed with formulated test compound diluted in water at an application rate of 200 ppm. The leaf segments are inoculated with a spore suspension of the fungus two days after application of the test solution. The inoculated leaf segments are incubated at 20° C. and 65% relative humidity under a light regime of 12/12 h (light/dark) in a climate cabinet and the activity of a compound is assessed as disease control compared to untreated when an appropriate level of disease damage appears in untreated check leaf segments (5-7 days after application). […]-2.507; 5.561; 2.561; E/E-2.208; P.57; 2.513; 2.559; 2.558; 2.556; 2.555; 2.374; 2.552; 2.544; 2.537; 2.533; 2.530; 2.528; 2.519; 2.510; 2.516; 2.514; E/E-5.167; E/E-3.002; 2.512

[5] = tested on: Puccinia recondita f. sp. tritici; experiment: Puccinia recondita f. sp. tritici / wheat / leaf disc curative (brown rust); assay type: in vivo; settings: foliar, wheat leaf segments cv Kanzler, 200 ppm applied 1 day after inoculation, assessed 6-8 days after application
Description: Puccinia recondita f. sp. tritici/Wheat/Leaf Disc Curative (Brown Rust): Wheat leaf segments cv Kanzler were placed on agar in 24-well plates. The leaf segments were inoculated with a spore suspension of the fungus. The plates were stored in darkness at 19° C. and 75% relative humidity. The formulated test compound diluted in water was applied at an application rate of 200 ppm 1 day after inoculation. […]-2.508; 5.561; 2.561; E/E-2.208; 2.513; 2.559; 2.556; 2.555; 2.374; 2.552; 2.537; 2.519; 2.516; 2.514; […].002; 2.512; E/E-2.507

Cc1ccc(O)c(/C=N/OCC(C)(C)CO/N=C2\CCCc3ccc(C)nc32)n1 [Compound 2.533]
≥ 80%: inhibition of growth at up to 200 µg/mL [1] | pest or weed control at 200 ppm [2] | inhibition of growth at up to 200 µg/mL [3] | pest or weed control at 200 ppm [4]

C/C(=N\OCC(C)(C)CO/N=C1\CCCc2ccc(C)nc21)c1cc(C)cc(C)n1 [E/E-2.168]
≥ 80%: inhibition of growth at up to 200 µg/mL [1] | pest or weed control at 200 ppm [2] | inhibition of growth at up to 200 µg/mL [3] | pest or weed control at 200 ppm [5] | pest or weed control at 200 ppm [4]

C/C(=N\OCC(C)(C)CO/N=C1\CCCc2ccc(C)nc21)c1ccc2ccccc2n1 [Compound 2.512]
≥ 80%: inhibition of growth at up to 200 µg/mL [1] | pest or weed control at 200 ppm [2] | inhibition of growth at up to 200 µg/mL [3] | pest or weed control at 200 ppm [5] | pest or weed control at 200 ppm [4]

Cc1cccc(/C(=N/OCC(C)(C)CO/N=C2\CCCc3ccc(C)nc32)c2ccccc2)n1 [E/E-2.474]
≥ 80%: inhibition of growth at up to 200 µg/mL [1] | pest or weed control at 200 ppm [2] | inhibition of growth at up to 200 µg/mL [3] | pest or weed control at 200 ppm [5] | pest or weed control at 200 ppm [4]

Cc1ccc2c(n1)/C(=N/OCC(C)(C)CO/N=C/c1ccc3ccccc3n1)CCC2 [E/E-2.507]
≥ 80%: inhibition of growth at up to 200 µg/mL [1] | pest or weed control at 200 ppm [2] | inhibition of growth at up to 200 µg/mL [3] | pest or weed control at 200 ppm [5] | pest or weed control at 200 ppm [4]

C/C(=N\OCC1(CO/N=C2\CCCc3c2nc2ccccc2c3C)CC1)c1cc(C)cc(C)n1 [Compound 5.561]
≥ 80%: inhibition of growth at up to 200 µg/mL [1] | pest or weed control at 200 ppm [2] | inhibition of growth at up to 200 µg/mL [3] | pest or weed control at 200 ppm [5] | pest or weed control at 200 ppm [4]

COc1cccc(/C(C)=N/OCC(C)(C)CO/N=C2\CCCc3ccc(C)nc32)n1 [Compound 2.374]
≥ 80%: inhibition of growth at up to 200 µg/mL [1] | pest or weed control at 200 ppm [2] | inhibition of growth at up to 200 µg/mL [3] | pest or weed control at 200 ppm [5] | pest or weed control at 200 ppm [4]

C/C(=N\OCC(C)(C)CO/N=C1\CCCc2c1nc1ccccc1c2C)c1cc(C)cc(C)n1 [Compound 2.561]
≥ 80%: inhibition of growth at up to 200 µg/mL [1] | pest or weed control at 200 ppm [2] | inhibition of growth at up to 200 µg/mL [3] | pest or weed control at 200 ppm [5] | pest or weed control at 200 ppm [4]

C=C(CO/N=C(\C)c1cccc(C)n1)CO/N=C1\CCCc2ccc(C)nc21 [E/E-3.002]
≥ 80%: inhibition of growth at up to 200 µg/mL [1] | pest or weed control at 200 ppm [2] | inhibition of growth at up to 200 µg/mL [3] | pest or weed control at 200 ppm [5] | pest or weed control at 200 ppm [4]

C/C(=N\OCC(C)(C)CO/N=C1\CCCc2ccc(Cl)nc21)c1cc(C)cc(C)n1 [Compound 2.555]
≥ 80%: inhibition of growth at up to 200 µg/mL [1] | pest or weed control at 200 ppm [2] | inhibition of growth at up to 200 µg/mL [3] | pest or weed control at 200 ppm [5] | pest or weed control at 200 ppm [4]

C/C(=N\OCCCO/N=C1\CCCc2ccc(C)nc21)c1cccc(-c2ccccc2)n1 [Compound 2.514]
≥ 80%: inhibition of growth at up to 200 µg/mL [1] | pest or weed control at 200 ppm [2] | inhibition of growth at up to 200 µg/mL [3] | pest or weed control at 200 ppm [5] | pest or weed control at 200 ppm [4]

C/C(=N/OCC(C)(C)CO/N=C1\CCCc2ccc(C)nc21)c1ccccn1 [Compound 2.519]
≥ 80%: inhibition of growth at up to 200 µg/mL [1] | pest or weed control at 200 ppm [2] | inhibition of growth at up to 200 µg/mL [3] | pest or weed control at 200 ppm [5] | pest or weed control at 200 ppm [4]

CC/C(=N\OCC(C)(C)CO/N=C1\CCCc2ccc(C)nc21)c1ccccn1 [Compound 2.516]
≥ 80%: inhibition of growth at up to 200 µg/mL [1] | pest or weed control at 200 ppm [2] | inhibition of growth at up to 200 µg/mL [3] | pest or weed control at 200 ppm [5] | pest or weed control at 200 ppm [4]

C/C(=N\OCC(C)(C)CO/N=C1\CCCc2ccc(Oc3ccccc3)nc21)c1cc(C)cc(C)n1 [Compound 2.556]
≥ 80%: inhibition of growth at up to 200 µg/mL [1] | pest or weed control at 200 ppm [2] | inhibition of growth at up to 200 µg/mL [3] | pest or weed control at 200 ppm [5] | pest or weed control at 200 ppm [4]

C/C(=N\OCC1(CO/N=C2\CCCc3ccc(C)nc32)CC1)c1cc(C)cc(C)n1 [E/E-5.167]
≥ 80%: inhibition of growth at up to 200 µg/mL [1] | pest or weed control at 200 ppm [2] | inhibition of growth at up to 200 µg/mL [3] | pest or weed control at 200 ppm [5] | pest or weed control at 200 ppm [4]

C/C(=N\OCC(C)(C)CO/N=C1\CCCc2ccc(C)nc21)c1cccc(Br)n1 [E/E-2.508]
≥ 80%: inhibition of growth at up to 200 µg/mL [1] | pest or weed control at 200 ppm [2] | inhibition of growth at up to 200 µg/mL [3] | pest or weed control at 200 ppm [5]

Cc1ccc2c(n1)/C(=N/OCC(C)(C)CO/N=C/c1cccc(Oc3ccccc3)n1)CCC2 [Compound 2.530]
≥ 80%: pest or weed control at 200 ppm [2] | inhibition of growth at up to 200 µg/mL [3] | pest or weed control at 200 ppm [4]

C/C(=N\OCC(C)(C)CO/N=C1\CCCc2ccc(C)nc21)c1ccc2c(n1)CCCC2 [Compound 2.513]
≥ 80%: inhibition of growth at up to 200 µg/mL [1] | pest or weed control at 200 ppm [2] | inhibition of growth at up to 200 µg/mL [3] | pest or weed control at 200 ppm [5] | pest or weed control at 200 ppm [4]

C/C(=N\OCC(C)(C)CO/N=C1\CCCc2ccc(-c3cccc(C)n3)nc21)c1cc(C)cc(C)n1 [Compound 2.559]
≥ 80%: inhibition of growth at up to 200 µg/mL [1] | pest or weed control at 200 ppm [2] | inhibition of growth at up to 200 µg/mL [3] | pest or weed control at 200 ppm [5] | pest or weed control at 200 ppm [4]

C/C(=N\OCC(C)(C)CO/N=C1\CCCc2ccc(C)nc21)c1cccc(C)n1 [E/E-2.002]
≥ 80%: inhibition of growth at up to 200 µg/mL [1] | pest or weed control at 200 ppm [2] | inhibition of growth at up to 200 µg/mL [3] | pest or weed control at 200 ppm [5] | pest or weed control at 200 ppm [4]
